# Assay results from ChEMBL document CHEMBL1148051, “Antibiotic activity and absolute configuation of 8S-heptadeca-2(Z),9(Z)-diene-4,6-diyne-1,8-diol from Bupleurum salicifolium” (1994).
# Activity calls are given as the source filed them. The rule behind the calls is not given here.
# Assays:
# Pseudomonas aeruginosa = experiment: Antibacterial activity against Pseudomonas aeruginosa AK 958; format: functional, organism-based
# Salmonella = experiment: Antibacterial activity against Salmonella sp. CECT 456; format: functional, organism-based
# Escherichia coli = experiment: Antibacterial activity against Escherichia coli CECT 99; format: functional, organism-based
# Candida albicans = experiment: Antifungal activity against Candida albicans UBC1; format: functional, organism-based
# Bacillus subtilis = experiment: Antibacterial activity against Bacillus subtilis CECT 39 by rotary shaker method; format: functional
# Staphylococcus aureus = experiment: Antibacterial activity against Staphylococcus aureus ATCC 6538 by rotary shaker method; format: functional
smiles,measurement,setting,value
CCCCCCC/C=C\[C@H](O)C#CC#C/C=C\CO,Activity,Pseudomonas aeruginosa,inactive
same,Activity,Salmonella,inactive
same,Activity,Escherichia coli,inactive
same,Activity,Candida albicans,inactive
same,MIC,Bacillus subtilis,10.5 µg/mL
same,MIC,Staphylococcus aureus,10 µg/mL
